Data on twelve molecules can be found in US8686146B2, “Azaindenoisoquinoline topoisomerase I inhibitors” (Purdue Research Foundation, priority 2012, dated 2014).

Where a name gives a salt, the structure may show the parent alone. Read-outs that look alike come from different tables or passages of the source. Some results are limits rather than exact numbers.

One data set has as its system DU-145. Description: NCI screen antiproliferative activity, prostate DU-145. As for the experimental part: (§1) Cells of approximately 60 different human cancer cell lines were incubated for 48 h with five 10-fold dilutions of the tested compounds starting from 100 μM and then treated with sulforhodamine B dye. The ratios of recorded optical densities relative to that of the control were plotted as a function of the common logarithm of the tested compound concentrations. […] The GI50 and the mean graph midpoint (MGM) values of the prepared indenoisoquinolines in selected cell lines are presented in Table I.
(§2) The antiproliferative activity of each compound was determined in the National Cancer Institute (NCI) screen as described above. Cells of approximately 60 different human cancer cell lines were incubated for 48 h with five 10-fold dilutions of the test compounds starting from 100 μM, and then treated with sulforhodamine B dye. The ratios of recorded optical densities relative to those of the control were plotted as a function of the common logarithm of the tested compound concentrations. […] The GI50 and the mean graph midpoint (MGM) values of the prepared (aza)indeno-isoquinolines in selected cell lines are presented in Table 2.

In another data set the test system is UACC-62. Kind of data set: NCI screen antiproliferative activity, melanoma UACC-62. As to the method: as §1, §2
A further data set concerns HCT-116. Description: NCI screen antiproliferative activity, colon HCT-116. As to the method:
as §1, §2

Data set [1] relates to approximately 60 different human cancer cell lines. Description: NCI screen, mean graph midpoint over all cell lines. It is filed as cell-based. The settings on record: all human cancer cell lines successfully tested, 48 h. As for the experimental part: as §1, §2
Another data set has as its system SF-539. Kind of data set: NCI screen antiproliferative activity, CNS SF-539. As for the experimental part: as §1, §2
The subject of a further data set is MCF7. Description: NCI screen antiproliferative activity, breast MCF7. As to the method: as §1, §2
In another data set the test system is HOP-62. Kind of data set: NCI screen antiproliferative activity, lung HOP-62. As to the method:
as §1, §2

Another data set deals with SN12C. Kind of data set: NCI screen antiproliferative activity, renal SN12C. As to the method: as §1, §2
Another data set has as its system OVCAR-3. Kind of data set: NCI screen antiproliferative activity, ovarian OVCAR-3. As for the experimental part: as §1, §2
The next data set deals with T1, human recombinant Top1 (Homo sapiens, UniProt P11387).
T1 construct: made in house
T1 sequence (P11387 1-765): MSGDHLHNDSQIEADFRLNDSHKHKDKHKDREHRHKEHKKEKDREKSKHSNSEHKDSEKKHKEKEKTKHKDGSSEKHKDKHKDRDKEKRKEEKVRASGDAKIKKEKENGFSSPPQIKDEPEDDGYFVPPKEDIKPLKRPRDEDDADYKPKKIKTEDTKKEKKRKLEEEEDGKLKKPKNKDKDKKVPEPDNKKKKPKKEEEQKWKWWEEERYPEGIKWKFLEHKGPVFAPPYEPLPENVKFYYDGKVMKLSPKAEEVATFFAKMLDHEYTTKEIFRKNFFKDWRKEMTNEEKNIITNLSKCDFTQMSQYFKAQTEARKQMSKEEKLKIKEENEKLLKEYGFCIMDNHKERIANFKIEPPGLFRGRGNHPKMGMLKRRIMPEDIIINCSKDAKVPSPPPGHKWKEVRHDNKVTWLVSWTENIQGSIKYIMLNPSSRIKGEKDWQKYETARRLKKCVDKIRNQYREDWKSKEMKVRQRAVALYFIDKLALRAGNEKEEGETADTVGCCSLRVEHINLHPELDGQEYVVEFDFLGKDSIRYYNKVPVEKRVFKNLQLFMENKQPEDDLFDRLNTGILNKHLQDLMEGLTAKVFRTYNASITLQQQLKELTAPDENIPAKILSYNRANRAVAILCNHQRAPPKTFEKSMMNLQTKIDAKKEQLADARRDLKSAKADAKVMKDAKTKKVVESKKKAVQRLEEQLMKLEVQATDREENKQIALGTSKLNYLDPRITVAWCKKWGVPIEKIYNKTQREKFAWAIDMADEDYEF
Kind of data set: Top1-mediated DNA cleavage assay. Format: biochemical. The settings on record: semiquantitative, relative to compounds 1 and 2. As to the method: Unincorporated [^32P]dGTP was removed using mini Quick […] columns (Roche, Indianapolis, Ind.), and the eluate containing the […] DNA substrate was collected. […] Aliquots of each reaction mixture were subjected to 20% denaturing PAGE. […] The DNA fragments were separated on a denaturing gel. […] All of the target compounds were tested for induction of DNA damage in Top1-mediated DNA cleavage assays, as described above.

[2] abbreviates: Homo sapiens, DU-145, 48 h, read-out: cytotoxicity (GI50) prostate DU-145, 48 h, sulforhodamine B, single determination, Table 1.
[3] abbreviates: Homo sapiens, DU-145, 48 h, read-out: cytotoxicity (GI50) prostate DU-145, 48 h, sulforhodamine B, single determination, Table 2.
Setting [4] is: Homo sapiens, UACC-62, 48 h, read-out: cytotoxicity (GI50) melanoma UACC-62, 48 h, sulforhodamine B, single determination, Table 1.
[5] abbreviates: Homo sapiens, UACC-62, 48 h, read-out: cytotoxicity (GI50) melanoma UACC-62, 48 h, sulforhodamine B, single determination, Table 2.
The mark [6] stands for this setting: Homo sapiens, HCT-116, 48 h, read-out: cytotoxicity (GI50) colon HCT-116, 48 h, sulforhodamine B, single determination, Table 1.
[7] abbreviates: Homo sapiens, HCT-116, 48 h, read-out: cytotoxicity (GI50) colon HCT-116, 48 h, sulforhodamine B, single determination, Table 2.
[8] abbreviates: Homo sapiens, 48 h, read-out: cytotoxicity (GI50) CNS SF-539, 48 h, sulforhodamine B, single determination, Table 2.
The mark [9] stands for this setting: Homo sapiens, MCF7, 48 h, read-out: cytotoxicity (GI50) breast MCF7, 48 h, sulforhodamine B, single determination, Table 2.
[10] abbreviates: Homo sapiens, HOP-62, 48 h, read-out: cytotoxicity (GI50) lung HOP-62, 48 h, sulforhodamine B, single determination, Table 1.
Setting [11] is: Homo sapiens, HOP-62, 48 h, read-out: cytotoxicity (GI50) lung HOP-62, 48 h, sulforhodamine B, single determination, Table 2.
The mark [12] stands for this setting: Homo sapiens, SN12C, 48 h, read-out: cytotoxicity (GI50) renal SN12C, 48 h, sulforhodamine B, single determination, Table 1.
Where [13] appears, read: Homo sapiens, SN12C, 48 h, read-out: cytotoxicity (GI50) renal SN12C, 48 h, sulforhodamine B, single determination, Table 2.
Where [14] appears, read: Homo sapiens, MCF7, 48 h, read-out: cytotoxicity (GI50) breast MCF7, 48 h, sulforhodamine B, single determination, Table 1.
Setting [15] is: Homo sapiens, OVCAR-3, 48 h, read-out: cytotoxicity (GI50) ovarian OVCAR-3, 48 h, sulforhodamine B, single determination, Table 1.

On to `CC[C@@]1(O)C(=O)OCc2c1cc1n(c2=O)Cc2cc3ccccc3nc2-1` [Compound 1, camptothecin, reference compound], for which the concentration for 50% growth inhibition (GI50) (usually the concentration giving 50% growth inhibition) in the data set on DU-145 (setting [2]) amounted to 0.01 µM; in the data set with DU-145 (setting [3]) it was 0.01 µM; in the data set with UACC-62 (setting [4]), 0.01 µM; in the data set on UACC-62 (setting [5]) it was 0.01 µM; in the data set with HCT-116 (setting [6]) it was 0.03 µM; in the data set on HCT-116 (setting [7]), 0.03 µM. Also, the 50% growth inhibitory concentration (GI50) stood at 0.01 µM in the data set on SF-539 (setting [8]); 0.013 µM with MCF7 (setting [9]); 0.01 µM in the data set on HOP-62 (setting [10]); 0.01 µM in the data set on HOP-62 (setting [11]); 0.02 µM with SN12C (setting [12]); 0.02 µM in the data set with SN12C (setting [13]). Also, the “MGM (mean graph midpoint for growth inhibition)” value turned out to be 0.04 µM in data set [1] (Table 1) and 0.040 µM in [1] (Table 2).
Take `COc1cc2c3c(n(C)c(=O)c2cc1OC)-c1cc2c(cc1C3=O)OCO2` [Compound 2, reference compound]: the GI50 in the data set on DU-145 (setting [2]) stood at 4.79 µM; in the data set on DU-145 (setting [3]), 4.8 µM; in the data set with UACC-62 (setting [5]), 0.56 µM; in the data set on HCT-116 (setting [6]), 11.5 µM; with HCT-116 (setting [7]), 11.5 µM; in the data set with SF-539 (setting [8]) it was 1.7 µM. In addition, the GI50 worked out at 1.91 µM in the data set with MCF7 (setting [14]); 1.9 µM in the data set with MCF7 (setting [9]); 2.82 µM in the data set on HOP-62 (setting [10]); 2.8 µM in the data set with HOP-62 (setting [11]); 25.7 µM in the data set on SN12C (setting [12]); 26 µM in the data set with SN12C (setting [13]). Also, the “MGM (mean graph midpoint for growth inhibition)” value in [1] (Table 1) is 8.51 µM; in data set [1] (Table 2) it was 8.5 µM.
Regarding `CN(C)CCCn1c2c(c3ccccc3c1=O)C(=O)c1cccnc1-2` [Compound 18, 7-Aza-5,6-dihydro-6-(3-dimethylaminopropyl)-5,11-dioxo-11H-indeno[1,2-c]-isoquinoline Hydrochloride], the GI50 in the data set on DU-145 (setting [2]) stood at 1.35 µM; in the data set on UACC-62 (setting [4]), 2.69 µM; in the data set with OVCAR-3 (setting [15]), 2.57 µM; with HCT-116 (setting [6]), 0.41 µM; in the data set with MCF7 (setting [14]), 0.25 µM; in the data set on HOP-62 (setting [10]), 1.51 µM. For the same molecule, the GI50 with SN12C (setting [12]) was determined as 0.81 µM. Moreover, the “MGM (mean graph midpoint for growth inhibition)” value in [1] (Table 1) came to 1.78 µM. Further, the “Top1 Cleavage” value at human recombinant Top1 (Table 1) is on record as “+++”.
Regarding `CN(C)CCCn1c2c(c3ccc([N+](=O)[O-])cc3c1=O)C(=O)c1cccnc1-2.Cl` [Compound 20, 7-Aza-5,6-dihydro-6-(3-dimethylaminopropyl)-3-nitro-5,11-dioxo-11H-indeno[1,2-c]isoquinoline Hydrochloride], the GI50 in the data set with DU-145 was 0.93 µM; in the data set on UACC-62 it was 3.31 µM; with OVCAR-3, 2.29 µM; in the data set with HCT-116, 0.44 µM; in the data set on SF-539, 2.69 µM; in the data set on MCF7 it was 0.36 µM. The GI50 is 2.35 µM with HOP-62 and 1 µM in the data set on SN12C. Also, the “MGM (mean graph midpoint for growth inhibition)” value in [1] (Table 1) amounted to 1.86 µM.
As for `Cl.O=C1c2cccnc2-c2c1c1ccccc1c(=O)n2CCCN1CCOCC1` [Compound 21, 7-Aza-5,6-dihydro-6-(3-morpholinopropyl)-5,11-dioxo-11H-indeno[1,2-c]iso-quinoline Hydrochloride], the GI50 in the data set with DU-145 is 3.55 µM; in the data set with UACC-62 it was over 100 µM; in the data set on OVCAR-3, 28.2 µM; in the data set on HCT-116, 1.86 µM; in the data set on SF-539, 5.62 µM; in the data set on MCF7, 2.75 µM. The concentration for 50% growth inhibition (GI50) amounted to 35.5 µM with HOP-62 and 5.37 µM in the data set on SN12C. In data set [1] (Table 1), the “MGM (mean graph midpoint for growth inhibition)” value is 15.49 µM.
As to `O=C1c2cccnc2-c2c1c1ccc([N+](=O)[O-])cc1c(=O)n2CCCN1CCOCC1` [Compound 23, 7-Aza-5,6-dihydro-6-(3-morpholinopropyl)-3-nitro-5,11-dioxo-1H-indeno-[1,2-c]isoquinoline Hydrochloride], the “Top1 Cleavage” value on human recombinant Top1 (Table 1) is “+++”.
Take `COc1cc2c3c(n(CCCn4ccnc4)c(=O)c2cc1OC)-c1ncccc1C3=O` [Compound 29, 7-Aza-5,6-dihydro-6-(3-(1H-imidazol-1-yl)propyl)-2,3-dimethoxy-5,11-dioxo-11H-indeno[1,2-c]isoquinoline]: the “Top1 Cleavage” value at human recombinant Top1 (Table 1) was “++”.
Consider `CN(C)CCCn1c2c(c3ccccc3c1=O)C(=O)c1ccccc1-2` [Compound 33, reference compound], for which the GI50 in the data set with DU-145 (setting [2]) is 1.32 µM; in the data set with UACC-62 (setting [4]) it was 0.51 µM; with OVCAR-3 (setting [15]), 1.66 µM; in the data set with HCT-116 (setting [6]), 0.58 µM; with MCF7 (setting [14]) it was 0.55 µM; in the data set on HOP-62 (setting [10]), 1.74 µM. For the same molecule, the GI50 in the data set on SN12C (setting [12]) is 0.91 µM. Besides, in data set [1] (Table 1), the “MGM (mean graph midpoint for growth inhibition)” value was found to be 1.86 µM.
Consider `COc1cc2c3c(n(CCCN(C)C)c(=O)c2cc1OC)-c1cccnc1C3=O.O=C(O)C(F)(F)F` [Compound 37, 10-Aza-5,6-dihydro-6-(3-dimethylaminopropyl)-2,3-dimethoxy-5,11-dioxo-11H-indeno[1,2-c]isoquinoline Trifluoroacetate], for which the “Top1 Cleavage” value at human recombinant Top1 (Table 2) is reported as “++”.
Still for that read-out and setting: next, `COc1ccc2c(n1)C(=O)c1c-2n(CCCN(C)C)c(=O)c2cc(OC)c(OC)cc12.O=C(O)C(F)(F)F` [Compound 45, 10-Aza-5,6-dihydro-6-(3-dimethylaminopropyl)-2,3,9-trimethoxy-5,11-dioxo-11H-indeno[1,2-c]isoquinoline Trifluoroacetate]: “+++”; `COc1ccc2c(n1)C(=O)c1c-2n(CCCN2CCOCC2)c(=O)c2cc(OC)c(OC)cc12.O=C(O)C(F)(F)F` [Compound 46, 10-Aza-5,6-dihydro-6-(3-(4-morpholino)propyl)-2,3,9-trimethoxy-5,11-dioxo-11H-indeno[1,2-c]isoquinoline Trifluoroacetate]: “+++”.
On the same count and under the same terms, next, `COc1cc2c3c(n(CCCN(C)C)c(=O)c2cc1OC)-c1cnccc1C3=O.O=C(O)C(F)(F)F` [Compound 117, 8-Aza-5,6-dihydro-6-(3-dimethylaminopropyl)-2,3-dimethoxy-5,11-dioxo-11H-indeno[1,2-c]isoquinoline Trifluoroacetate]: “++”.
